Results published in US20060142180A1, “Cholinergic modulation of microglial activation via alpha-7 nicotinic receptors” (priority 2003, published 2006).
Read-outs that look alike come from different tables or passages of the source.

Legend:
[1] = test system: LPS-induced TNF-α release in primary cultured microglial cells; assay: LPS-induced TNF-α release from primary cultured microglial cells (ELISA); type: cell-based, mouse
Description: Murine primary culture microglial cells were isolated from mouse cerebral cortices (C57BL/6 mice) and cultured as previously described (Tan et al. 2000b). To investigate whether α7 nAChR subunits are expressed in microglial cells, we first isolated total RNA from N9 microglial cell line and primary cultured microglial cells for RT-PCR analysis.
To determine whether ACh or nicotine could inhibit LPS-induced TNF-α production in these microglial cells, the inventors pre-incubated microglial cells with ACh or nicotine for 30 minutes and challenged these cells with LPS for 4 hours. […] Primary cultured microglial cells pretreated with ACh (FIG. 3B) or nicotine […] at a range of dose as indicated for 30 minutes and challenged with LPS (100 ng/mL) for 4 hours. Microglial TNF-α release was measured by ELISA.

α7 nAChR subunit = α7 nAChR subunit (Mus musculus, UniProt P49582)
Sequence of α7 nAChR subunit (P49582 23-502): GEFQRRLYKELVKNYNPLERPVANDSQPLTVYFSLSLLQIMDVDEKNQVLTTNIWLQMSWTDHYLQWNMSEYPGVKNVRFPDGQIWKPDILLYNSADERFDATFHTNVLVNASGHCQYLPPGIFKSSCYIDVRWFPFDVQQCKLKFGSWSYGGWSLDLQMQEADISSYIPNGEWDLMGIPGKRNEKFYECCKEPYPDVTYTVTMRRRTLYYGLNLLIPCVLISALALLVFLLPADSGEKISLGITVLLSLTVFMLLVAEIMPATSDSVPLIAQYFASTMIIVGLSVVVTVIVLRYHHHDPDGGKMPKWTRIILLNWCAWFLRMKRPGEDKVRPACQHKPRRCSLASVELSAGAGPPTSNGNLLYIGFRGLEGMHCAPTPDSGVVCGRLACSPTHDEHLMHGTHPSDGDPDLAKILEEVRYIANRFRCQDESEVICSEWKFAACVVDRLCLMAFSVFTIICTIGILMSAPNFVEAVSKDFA

Molecule: CNC1(C)C2CCC(C2)C1(C)C (stereo not drawn) [mecamylamine]
- effect of nACh antagonist on ACh or nicotine-mediated inhibition of microglial TNF-α production [1]: significantly recovers
- TNF-α release, antagonist plus LPS versus LPS alone ([1]; antagonist without agonist, […], LPS 100 ng/mL 4 hours, p>0.05): no significances

Molecule: CN1CCCC1c1cccnc1 (stereo not drawn) [nicotine]
- dose dependence of inhibition of microglial LPS-induced TNF-α production [1]: dose-dependently inhibits
- LPS-induced TNF-α release ([1]; pre-stimulated 30 minutes at 5 μM, then LPS 100 ng/mL for 4 hours, p<0.01 vs LPS (FIG. 3A)): marked reduction
- fluorescent intensity of FITC-labeled α-bungarotoxin binding (α7 nAChR subunit): marked reduction

Molecule: α-bungarotoxin
- TNF-α release, antagonist plus LPS versus LPS alone [1]: no significances
